Measurements as given in PubChem BioAssay (NCI).
“And” between values parts separate entries of the source, which are not always exact repeats. Equal entries are not always repeated.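 48-hour exposure; five concentrations; linearly interpolated endpoints. GI50 is the concentration that inhibits growth by half. The concentration for full growth arrest is given as TGI.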

Key:
Assay in all cases: inhibition of tumour cell growth, NCI panel, 48 h
ACHN renal = system: ACHN renal
SF-268 CNS = system: SF-268 CNS
786-0 renal = system: 786-0 renal
UACC-257 melanoma = system: UACC-257 melanoma
K-562 leukemia = system: K-562 leukemia
NCI-H522 lung = system: NCI-H522 lung
SK-MEL-2 melanoma = system: SK-MEL-2 melanoma
LOX IMVI melanoma = system: LOX IMVI melanoma
HCT-15 colon = system: HCT-15 colon
A549 NSCLC = system: A549 NSCLC

Compound | GI50 (ACHN renal) | TGI (ACHN renal) | GI50 (SF-268 CNS) | TGI (SF-268 CNS) [µM] | GI50 (786-0 renal) | TGI (786-0 renal) | GI50 (UACC-257 melanoma) | TGI (UACC-257 melanoma) [µM] | GI50 (K-562 leukemia) | TGI (K-562 leukemia) [µM] | GI50 (NCI-H522 lung) [µM] | TGI (NCI-H522 lung) [µM] | GI50 (SK-MEL-2 melanoma) [µM] | TGI (SK-MEL-2 melanoma) [µM] | GI50 (LOX IMVI melanoma) | TGI (LOX IMVI melanoma) [µM] | GI50 (HCT-15 colon) | TGI (HCT-15 colon) [µM] | GI50 (A549 NSCLC) [µM] | TGI (A549 NSCLC) [µM]
O=P([O-])(O)OP(=O)([O-])O.[NH-][C@@H]1CCCC[C@H]1[NH-].[Pt+4] | 4.78 µM and 5.63 µM | > 100 µM and 58.2 µM | 60.6 µM and 6.27 µM | > 100 | 20.6 µM and 7.98 µM | > 100 µM and 76.6 µM | 70.6 µM and 7.93 µM | > 100 | 26.1 µM and 4.09 µM | > 100 | 14.6 | > 100 | > 53.2 | > 100 | 15.6 µM and 6.86 µM | > 100 | 11.2 µM and 8.21 µM | > 100 | 10 | > 100
NC(=S)N/N=C(\C(=O)Nc1cccc([N+](=O)[O-])c1)c1nc2ccc([N+](=O)[O-])cc2[nH]c1=O | – | > 100 µM | – | > 100 | – | > 100 µM | – | > 100 | – | > 100 | – | 53 | – | > 100 | – | > 100 | – | > 100 | – | > 100
CC1(C)CC(n2cnc(-c3ccc(F)cc3)c2-c2ccnc(N)n2)CC(C)(C)N1 | 10.3 µM | > 25 µM | 18.7 µM | > 25 | > 25 µM | > 25 µM | > 25 µM | > 25 | > 24.1 µM | > 25 | 17.6 | > 25 | > 25 | > 25 | > 19.7 µM | > 25 | 17.7 µM | > 25 | 12.5 | > 25
Cc1cccc(C)c1NC(=O)CCc1nnc2s/c(=C\c3ccc(Cl)cc3)c(=O)n12 | – | > 100 µM | – | > 100 | – | > 100 µM | – | > 100 | – | > 100 | – | > 100 | – | > 100 | – | > 100 | – | 36.2 | – | > 100
c1cc(OCCN2CCCCC2)ccc1CNc1ccc2nc(CCC3CCCCC3)[nH]c2c1 | 2.2 µM | 5.4 µM | 2.08 µM | 5.43 | 1.65 µM | 3.55 µM | 1.91 µM | 3.89 | 0.852 µM | 3.6 | 1.98 | 3.94 | 1.88 | 3.62 | 1.75 µM | 3.19 | 1.58 µM | 3.89 | 2.54 | 7.06
